Source: PubChem BioAssay AID1963420 (Molecular Pharmacology Branch, DTP, NCI, 2024)

Test system: 494315-158-R-J1-PDC complex spheroid growth, percent test/control
Assay: Anticancer human tumor 494315-158-R-J1-PDC patient-derived soft tissue sarcoma cell line growth inhibition [Asc]
Settings: for IC50: curve of first compound; for viability, T/C: stronger effect = lower value
Outline: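 Spheroid model: tumor line + HUVEC + hMSC. Single agents and combinations; top conc. at/near clinical Cmax (10 microM if undetermined), half-log dilutions. DMSO stocks at 800-fold test concentration.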

[1] = second compound 0.01 µM, first compound 0.0316 µM
[2] = second compound 0.01 µM, first compound 0.1 µM
[3] = second compound 0.01 µM, first compound 0.316 µM
[4] = second compound 0.01 µM, first compound 1 µM
[5] = second compound 0.01 µM, first compound 3.16 µM
[6] = second compound 0.01 µM, first compound 10 µM
[7] = second compound 0.0316 µM, first compound 0.0316 µM
[8] = second compound 0.0316 µM, first compound 0.1 µM
[9] = second compound 0.0316 µM, first compound 0.316 µM
[10] = second compound 0.0316 µM, first compound 1 µM
[11] = second compound 0.0316 µM, first compound 3.16 µM
[12] = second compound 0.0316 µM, first compound 10 µM
[13] = second compound 0.1 µM, first compound 0.0316 µM
[14] = second compound 0.1 µM, first compound 0.1 µM
[15] = second compound 0.1 µM, first compound 0.316 µM
[16] = second compound 0.1 µM, first compound 1 µM
[17] = second compound 0.1 µM, first compound 3.16 µM
[18] = second compound 0.1 µM, first compound 10 µM
[19] = second compound 0.316 µM, first compound 0.0316 µM
[20] = second compound 0.316 µM, first compound 0.1 µM
[21] = second compound 0.316 µM, first compound 0.316 µM
[22] = second compound 0.316 µM, first compound 1 µM
[23] = second compound 0.316 µM, first compound 3.16 µM
[24] = second compound 0.316 µM, first compound 10 µM
[25] = second compound 1 µM, first compound 0.0316 µM
[26] = second compound 1 µM, first compound 0.1 µM
[27] = second compound 1 µM, first compound 0.316 µM
[28] = second compound 1 µM, first compound 1 µM
[29] = second compound 1 µM, first compound 3.16 µM
[30] = second compound 1 µM, first compound 10 µM
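Also: compound exposure lasted seven days after spheroids formed for three days.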

`C#Cc1c(F)ccc2cc(O)cc(-c3ncc4c(N5CC6CCC(C5)N6)nc(OCC56CCCN5CC(F)C6)nc4c3F)c12` (stereo not given) + CNC(C)C(=O)NC1CN(S(=O)(=O)c2cccc(S(=O)(=O)N3CCC4CCC(C(=O)NC(c5ccccc5)c5ccccc5)N4C(=O)C(NC(=O)C(C)NC)C3)c2)CCC2CCC(C(=O)NC(c3ccccc3)c3ccccc3)N2C1=O was tested, and the IC50 (second compound 0.01 µM) was > 10 µM, the IC50 (second compound 0.0316 µM) was > 10 µM and the IC50 (second compound 0.1 µM) was > 10 µM. For the same compound, the IC50 (second compound 0.316 µM) was > 10 µM, the IC50 (second compound 1 µM) was < 0.0316 µM and the viability, T/C [1] was 75.8%. For the same compound, the viability, T/C [2] was 77.5%, the viability, T/C [3] was 78.4% and the viability, T/C [4] was 89.3%. For the same compound, the viability, T/C [5] was 86.8%, the viability, T/C [6] was 82% and the viability, T/C [7] was 66.7%. The viability, T/C [8] was 59.8%, the viability, T/C [9] was 71.6% and the viability, T/C [10] was 71.6%. The viability, T/C [11] was 76.9%, the viability, T/C [12] was 78% and the viability, T/C [13] was 53.5%. For the same compound, the viability, T/C [14] was 65.6%, the viability, T/C [15] was 65.3% and the viability, T/C [16] was 65.4%. For the same compound, the viability, T/C [17] was 72.4%, the viability, T/C [18] was 70.7% and the viability, T/C [19] was 47.8%. For the same compound, the viability, T/C [20] was 48.1%, the viability, T/C [21] was 52.7% and the viability, T/C [22] was 51.9%. For the same compound, the viability, T/C [23] was 51.4%, the viability, T/C [24] was 69.5% and the viability, T/C [25] was 37.6%. The viability, T/C [26] was 43.8%, the viability, T/C [27] was 39.4% and the viability, T/C [28] was 45.8%. It also gave a viability, T/C [29] of 55.5% and a viability, T/C [30] of 55.6%.

For `C=CC(=O)N1CCN(c2nc(=O)n(-c3c(C)ccnc3C(C)C)c3nc(-c4c(O)cccc4F)c(F)cc23)C(C)C1` (stereo not given) + CNC(C)C(=O)NC1CN(S(=O)(=O)c2cccc(S(=O)(=O)N3CCC4CCC(C(=O)NC(c5ccccc5)c5ccccc5)N4C(=O)C(NC(=O)C(C)NC)C3)c2)CCC2CCC(C(=O)NC(c3ccccc3)c3ccccc3)N2C1=O, the IC50 (second compound 0.01 µM) was > 10 µM, the IC50 (second compound 0.0316 µM) was > 10 µM and the IC50 (second compound 0.1 µM) was > 10 µM. The IC50 (second compound 0.316 µM) was < 0.0316 µM, the IC50 (second compound 1 µM) was < 0.0316 µM and the viability, T/C [1] was 72.5%. For the same compound, the viability, T/C [2] was 70.5%, the viability, T/C [3] was 74.1% and the viability, T/C [4] was 69.5%. It also gave a viability, T/C [5] of 78.4%, a viability, T/C [6] of 57.8% and a viability, T/C [7] of 58.2%. It also gave a viability, T/C [8] of 60.8%, a viability, T/C [9] of 57.6% and a viability, T/C [10] of 73.5%. It also gave a viability, T/C [11] of 59.5%, a viability, T/C [12] of 45.2% and a viability, T/C [13] of 53.2%. The viability, T/C [14] was 54%, the viability, T/C [15] was 62.1% and the viability, T/C [16] was 55.4%. The viability, T/C [17] was 60.3%, the viability, T/C [18] was 42.5% and the viability, T/C [19] was 49%. It also gave a viability, T/C [20] of 50.1%, a viability, T/C [21] of 46.2% and a viability, T/C [22] of 45.8%. It also gave a viability, T/C [23] of 51.5%, a viability, T/C [24] of 42.2% and a viability, T/C [25] of 45.2%. It also gave a viability, T/C [26] of 49.7%, a viability, T/C [27] of 44.9% and a viability, T/C [28] of 35.3%. The viability, T/C [29] was 38.8% and the viability, T/C [30] was 40.9%.

`NC(=O)C(=Cn1cnc(-c2cc(C(F)(F)F)cc(C(F)(F)F)c2)n1)c1cncnc1` + CCN1C(C(=O)NC23CCC(C(=O)O)(CC2)CC3)C(c2cccc(Cl)c2F)C2(C(=O)Nc3cc(Cl)ccc32)C12CCCCC2 showed an IC50 (second compound 0.03 µM) of 0.0726 µM, an IC50 (second compound 0.0949 µM) of 0.0524 µM and an IC50 (second compound 0.3 µM) of 0.0687 µM. It also gave an IC50 (second compound 0.949 µM) of 0.0749 µM, an IC50 (second compound 3 µM) of 0.0791 µM and a viability, T/C (second compound 0.03 µM, first compound 0.000949 µM) of 97%. It also gave a viability, T/C (second compound 0.03 µM, first compound 0.003 µM) of 107%, a viability, T/C (second compound 0.03 µM, first compound 0.00949 µM) of 84.9% and a viability, T/C (second compound 0.03 µM, first compound 0.03 µM) of 78.3%. It also gave a viability, T/C (second compound 0.03 µM, first compound 0.0949 µM) of 41%, a viability, T/C (second compound 0.03 µM, first compound 0.3 µM) of 17.4% and a viability, T/C (second compound 0.0949 µM, first compound 0.000949 µM) of 96.6%. For the same compound, the viability, T/C (second compound 0.0949 µM, first compound 0.003 µM) was 96.4%, the viability, T/C (second compound 0.0949 µM, first compound 0.00949 µM) was 81.6% and the viability, T/C (second compound 0.0949 µM, first compound 0.03 µM) was 64.4%. For the same compound, the viability, T/C (second compound 0.0949 µM, first compound 0.0949 µM) was 35.5%, the viability, T/C (second compound 0.0949 µM, first compound 0.3 µM) was 16.8% and the viability, T/C (second compound 0.3 µM, first compound 0.000949 µM) was 96.6%. It also gave a viability, T/C (second compound 0.3 µM, first compound 0.003 µM) of 88%, a viability, T/C (second compound 0.3 µM, first compound 0.00949 µM) of 97.6% and a viability, T/C (second compound 0.3 µM, first compound 0.03 µM) of 74.8%. It also gave a viability, T/C (second compound 0.3 µM, first compound 0.0949 µM) of 40.4%, a viability, T/C (second compound 0.3 µM, first compound 0.3 µM) of 17.5% and a viability, T/C (second compound 0.949 µM, first compound 0.000949 µM) of 98.2%. For the same compound, the viability, T/C (second compound 0.949 µM, first compound 0.003 µM) was 89.3%, the viability, T/C (second compound 0.949 µM, first compound 0.00949 µM) was 80.6% and the viability, T/C (second compound 0.949 µM, first compound 0.03 µM) was 70.8%. The viability, T/C (second compound 0.949 µM, first compound 0.0949 µM) was 43.4%, the viability, T/C (second compound 0.949 µM, first compound 0.3 µM) was 19.1% and the viability, T/C (second compound 3 µM, first compound 0.000949 µM) was 102%. For the same compound, the viability, T/C (second compound 3 µM, first compound 0.003 µM) was 103%, the viability, T/C (second compound 3 µM, first compound 0.00949 µM) was 95.6% and the viability, T/C (second compound 3 µM, first compound 0.03 µM) was 81%. It also gave a viability, T/C (second compound 3 µM, first compound 0.0949 µM) of 44% and a viability, T/C (second compound 3 µM, first compound 0.3 µM) of 13.6%.

`NC(=O)C(=Cn1cnc(-c2cc(C(F)(F)F)cc(C(F)(F)F)c2)n1)c1cncnc1` + Cc1c(S(C)(=O)=O)c(-c2cc(F)cc(N3CCN(c4ccc(NS(=O)(=O)c5ccc(NC(CCN6CCC(C(=O)OCCCP(=O)(O)O)CC6)CSc6ccccc6)c(S(=O)(=O)C(F)(F)F)c5)cc4)CC3)c2)c(-c2ccc(Cl)cc2)n1C(C)C was tested, and the IC50 (second compound 0.1 µM) was 0.0232 µM, the IC50 (second compound 0.316 µM) was 0.0124 µM and the IC50 (second compound 1 µM) was 0.00667 µM. The IC50 (second compound 3.16 µM) was 0.00319 µM, the IC50 (second compound 10 µM) was 0.0101 µM and the viability, T/C (second compound 0.1 µM, first compound 0.000949 µM) was 79.5%. The viability, T/C (second compound 0.1 µM, first compound 0.003 µM) was 82.6%, the viability, T/C (second compound 0.1 µM, first compound 0.00949 µM) was 66.8% and the viability, T/C (second compound 0.1 µM, first compound 0.03 µM) was 44.9%. For the same compound, the viability, T/C (second compound 0.1 µM, first compound 0.0949 µM) was 19.2%, the viability, T/C (second compound 0.1 µM, first compound 0.3 µM) was 6.1% and the viability, T/C (second compound 0.316 µM, first compound 0.000949 µM) was 72.7%. It also gave a viability, T/C (second compound 0.316 µM, first compound 0.003 µM) of 65.4%, a viability, T/C (second compound 0.316 µM, first compound 0.00949 µM) of 51.3% and a viability, T/C (second compound 0.316 µM, first compound 0.03 µM) of 40.7%. It also gave a viability, T/C (second compound 0.316 µM, first compound 0.0949 µM) of 23.2%, a viability, T/C (second compound 0.316 µM, first compound 0.3 µM) of 4.23% and a viability, T/C (second compound 1 µM, first compound 0.000949 µM) of 53.7%. For the same compound, the viability, T/C (second compound 1 µM, first compound 0.003 µM) was 57.8%, the viability, T/C (second compound 1 µM, first compound 0.00949 µM) was 46.2% and the viability, T/C (second compound 1 µM, first compound 0.03 µM) was 35.1%. The viability, T/C (second compound 1 µM, first compound 0.0949 µM) was 16.3%, the viability, T/C (second compound 1 µM, first compound 0.3 µM) was 4.03% and the viability, T/C (second compound 3.16 µM, first compound 0.000949 µM) was 52.2%. The viability, T/C (second compound 3.16 µM, first compound 0.003 µM) was 52.2%, the viability, T/C (second compound 3.16 µM, first compound 0.00949 µM) was 41.8% and the viability, T/C (second compound 3.16 µM, first compound 0.03 µM) was 24%. The viability, T/C (second compound 3.16 µM, first compound 0.0949 µM) was 12.9%, the viability, T/C (second compound 3.16 µM, first compound 0.3 µM) was 2.93% and the viability, T/C (second compound 10 µM, first compound 0.000949 µM) was 67.4%. For the same compound, the viability, T/C (second compound 10 µM, first compound 0.003 µM) was 58%, the viability, T/C (second compound 10 µM, first compound 0.00949 µM) was 54.7% and the viability, T/C (second compound 10 µM, first compound 0.03 µM) was 29.2%. The viability, T/C (second compound 10 µM, first compound 0.0949 µM) was 14.8% and the viability, T/C (second compound 10 µM, first compound 0.3 µM) was 2.12%.
